In patent publication US20250099420A1, “SMALL MOLECULE MODULATORS OF GPR139 COMPLEX” (University of Florida Research Foundation, Incorporated, priority 2022, published 2025):
Like-named read-outs stand apart in the source and are kept apart here.

Key:
parental HEK cells = test: HEK parental Agonist Counterscreen Assay (non-transfected cells); format: cell-based; settings: for Averaged Max % Response (±St. Dev.): activity relative to known control
Source text: The high control for the agonist counterscreen was Forskolin not acetylcholine.

GPR139 = target: T1, GPR139 (Homo sapiens, UniProt Q6DWJ6); test: GPR139 Agonist titration / agonist counterscreen assay (calcium detection, HEK-GPR139 cells); format: cell-based; parameters: expressed in transfected cells; host or cells: HEK Aequorin cells, Maxcyte transient transfection; settings: GPR139 Agonist Activity; for EC50: read-out: EC50; for Averaged Max % Response (±St. Dev.): activity relative to known control
T1 sequence (Q6DWJ6 1-353): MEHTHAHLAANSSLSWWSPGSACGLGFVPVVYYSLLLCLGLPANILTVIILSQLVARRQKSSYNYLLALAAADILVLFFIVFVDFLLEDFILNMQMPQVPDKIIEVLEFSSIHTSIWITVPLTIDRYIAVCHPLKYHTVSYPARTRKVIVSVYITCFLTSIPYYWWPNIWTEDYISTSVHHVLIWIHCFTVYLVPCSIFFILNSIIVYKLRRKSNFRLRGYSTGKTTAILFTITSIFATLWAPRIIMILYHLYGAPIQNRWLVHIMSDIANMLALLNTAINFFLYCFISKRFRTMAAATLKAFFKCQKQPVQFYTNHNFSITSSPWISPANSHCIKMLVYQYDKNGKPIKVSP
Experimental: GPR activity was assessed using a calcium detection assay. […] Negative control samples were treated with DMSO. […] Intracellular calcium was measured using Calcium 5.

[1] = Homo sapiens, HEK293, HEK Agonist Activity section of Table 4 (parental HEK counterscreen)
[2] = HEK Agonist Activity, parental non-transfected HEK cells
[3] = values printed in E-notation without unit
[4] = HEK Agonist Activity section of Table 4 (parental HEK counterscreen)
[5] = Homo sapiens, HEK293, HEK Agonist Activity, parental non-transfected HEK cells

Lipophilic Efficiency (logD) (parental HEK cells; HEK Agonist Activity section)	Lipophilic Efficiency (logP) (parental HEK cells; HEK Agonist Activity section)	Efficiency Ligand (GPR139)	Hill Slope (GPR139)	Lipophilic Efficiency (logD) (GPR139)	Lipophilic Efficiency (logP) (GPR139)	EC50 (GPR139; HEK-GPR139 cells) [nM]	Averaged Max % Response (±St. Dev.) (GPR139) [%]	Lipophilic Efficiency (logD) (GPR139; based on logD)	Lipophilic Efficiency (logP) (GPR139; based on logP)	Efficiency Ligand (GPR139; ligand efficiency)	EC50 (GPR139; [3]) [nM]	SMILES	Averaged Max % Response (±St. Dev.) (parental HEK cells; HEK Agonist Activity section) [%]	EC50 (parental HEK cells; [1]) [nM]	further results
3.84	3.84	0.34	0.59	5.32	5.32	465	87.19 ± 17.95	–	–	–	–	CC1(c2ccc3c(c2)OCO3)NC(=O)N(CC(=O)NC2CCCC2)C1=O (centres unmarked) [SR-01000065547]	2.31 ± 13.81	> 14100	–
1.87	1.87	0.27	0.32	3.24	3.24	469	95.83 ± 14.92	–	–	–	–	O=C(CN1CC(=O)N(Cc2ccc(O)cc2)C(c2ccccc2Cl)C1=O)NCc1ccco1 (centres unmarked) [SR-01000583711]	9.29 ± 2.62	> 11100	–
1.92	1.92	0.28	1.73	3.34	3.33	537	110.81 ± 5.15	–	–	–	–	O=C(Cn1nc(Cc2ccncc2)c2ccccc2c1=O)N1CCCc2ccccc21 [SR-01000151917]	10.70 ± 4.71	> 14100	–
–	–	–	–	–	–	–	126.44 ± 4.55	5.48	5.47	0.56	< 0.716	O=C(CSCc1ccc(Cl)cc1Cl)NNC(=O)c1ccccc1 [SR-01000295701]	–	–	Lipophilic Efficiency (logD) (parental HEK cells; HEK Agonist Activity): 1.19; Lipophilic Efficiency (logP) (parental HEK cells; HEK Agonist Activity): 1.17; Averaged Max % Response (±St. Dev.) (parental HEK cells; HEK Agonist Activity): −4.01 ± 2.60%; EC50 (parental HEK cells; [2]): > 14100 nM
0.07	0.07	0.26	1.72	1.52	1.52	424	84.07 ± 18.43	–	–	–	–	O=C(CC1C(=O)N(c2ccccc2)C(=O)N1Cc1ccc2c(c1)OCO2)Nc1ccc(Cl)cc1 (centres unmarked) [SR-01000428566]	40.80 ± 6.00	> 11900	–
3.00	3.00	0.41	0.70	4.32	4.32	672	89.42 ± 11.78	–	–	–	–	CC1=NNC(=O)C1CC(=O)N/N=C/c1c(Cl)cccc1Cl (centres unmarked) [SR-01000310664]	28.78 ± 5.42	–	EC50 (parental HEK cells; [4]): > 14100 nM
2.90	2.90	0.33	0.97	4.10	4.10	896	96.03 ± 12.11	–	–	–	–	CC1CCCCN1C(=O)CN1C(=O)C2(CCc3ccccc3C2)NC1=S (centres unmarked) [SR-01000044433]	12.49 ± 3.39	> 14300	–
1.39	1.39	0.29	0.27	2.77	2.77	585	74.83 ± 7.16	–	–	–	–	O=C(CN1C(=O)NC2(CCc3ccccc3C2)C1=O)Nc1cccc2ccccc12 (centres unmarked) [SR-01000042749]	−8.38 ± 6.55	> 14100	–
1.67	1.67	0.33	0.84	3.13	3.13	490	98.80 ± 20.98	–	–	–	–	CC1CCCC(NC(=O)CN2CCN(Cc3ccc(F)cc3Cl)C2=O)C1C (centres unmarked) [SR-01000125648]	8.17 ± 5.14	> 14100	–
–	–	–	–	–	–	–	125.61 ± 14.18	5.59	5.59	0.41	6.7	C=C(C)CN(CC)C(=O)CN1C(=O)NC(C)(c2ccc3ccccc3c2)C1=O (centres unmarked) [SR-01000048841]	–	–	Lipophilic Efficiency (logD) (parental HEK cells; HEK Agonist Activity): 2.25; Lipophilic Efficiency (logP) (parental HEK cells; HEK Agonist Activity): 2.25; Averaged Max % Response (±St. Dev.) (parental HEK cells; HEK Agonist Activity): 15.49 ± 13.53%; EC50 (parental HEK cells; [5]): > 14800 nM; Hill Slope (GPR139; fitted dose-response curve): 0.27
1.24	1.24	–	–	–	–	–	101.61 ± 5.25	3.67	3.67	0.34	54.3	CCC1(c2ccc(Cl)cc2)NC(=O)N(CC(=O)N2CC3(C)CC2CC(C)(C)C3)C1=O (centres unmarked) [SR-01000045673]	4.34 ± 4.74	> 14300	Hill Slope (GPR139; fitted dose-response curve): 0.62
–	–	–	–	–	–	–	120.13 ± 6.96	5.35	5.34	0.47	–	COc1cccc(C(=O)NNC(=O)CCCOc2ccc(Cl)cc2Cl)c1 [SR-01000205482]	–	–	Lipophilic Efficiency (logD) (parental HEK cells; HEK Agonist Activity): 1.53; Lipophilic Efficiency (logP) (parental HEK cells; HEK Agonist Activity): 1.52; Averaged Max % Response (±St. Dev.) (parental HEK cells; HEK Agonist Activity): −5.45 ± 10.43%; EC50 (parental HEK cells; [2]): > 14100 nM
1.22	1.22	–	–	–	–	–	162.60 ± 13.73	3.60	3.60	0.42	> 57.4	O=C(CSc1ccc(Cl)cc1)Nc1nnc(-c2ccc(F)cc2)o1 [SR-01000021435]	24.48 ± 11.03	–	EC50 (parental HEK cells; [4]): > 13900 nM
–	–	–	–	–	–	–	100.82 ± 13.50	4.27	4.27	0.34	–	O=C(Cn1nc(Cc2ccncc2)c2ccccc2c1=O)NC(O)CCc1ccccc1 (centres unmarked) [SR-01000134029]	–	–	Lipophilic Efficiency (logD) (parental HEK cells; HEK Agonist Activity): 1.41; Lipophilic Efficiency (logP) (parental HEK cells; HEK Agonist Activity): 1.41; Averaged Max % Response (±St. Dev.) (parental HEK cells; HEK Agonist Activity): 19.31 ± 4.61%; EC50 (parental HEK cells; [5]): > 14100 nM
1.88	1.88	0.36	0.73	3.46	3.46	408	89.45 ± 3.28	–	–	–	–	CCCC1(CCC)NC(=O)N(CC(=O)NCc2ccc(Cl)cc2)C1=O [SR-01000050884]	5.22 ± 1.83	> 15400	–
1.70	1.70	0.27	–	2.66	2.66	–	121.63 ± 9.56	–	–	–	–	C=C(CC1C(=O)CC(c2ccccc2)(c2ccccc2)C1=O)C(C)CC1=CC=CC1 (centres unmarked) [SR-01000062305]	−4.71 ± 5.40	> 14800	–
1.95	1.95	–	–	–	–	–	98.04 ± 26.06	3.96	3.96	0.32	138	CC(NC(=O)c1ccc2c(c1)N(Cc1ccccc1)C(=O)C[S+]2[O-])c1ccccc1 (centres unmarked) [SR-01000129845]	8.19 ± 5.50	–	EC50 (parental HEK cells; [4]): > 14100 nM; Hill Slope (GPR139; fitted dose-response curve): 1.01
–	–	–	–	–	–	–	122.18 ± 22.07	5.74	5.73	0.36	21.5	COc1ccc(C2=NN(CC(=O)NCCCN(C)c3ccccc3)C(=O)CC2)cc1 [SR-01000145949]	–	–	Lipophilic Efficiency (logD) (parental HEK cells; HEK Agonist Activity): 2.92; Lipophilic Efficiency (logP) (parental HEK cells; HEK Agonist Activity): 2.92; Averaged Max % Response (±St. Dev.) (parental HEK cells; HEK Agonist Activity): 2.57 ± 15.21%; EC50 (parental HEK cells; [5]): > 14100 nM; Hill Slope (GPR139; fitted dose-response curve): 1.04
2.56	2.55	0.30	0.89	4.08	4.08	450	81.95 ± 3.88	–	–	–	–	COc1cc(C(=O)NNC(=O)COc2ccc3ccccc3c2)cc(OC)c1OC [SR-01000056004]	−16.39 ± 11.45	> 15100	–
